Results: patent US20250092065A1, “2-(INDAZOL-5-YL)-6-(PIPERIDIN-4-YL)-1,7-NAPHTHYRIDINE DERIVATIVES AND RELATED COMPOUNDS AS MODULATORS FOR SPLICING NUCLEIC ACIDS AND FOR THE TREATMENT OF PROLIFERATIVE DISEASES” (REMIX THERAPEUTICS INC., priority 2022, published 2025)

Tests used:
Target C [1] = assay: HiBiT protein abundance assay, Target C (K562 HiBiT knock-in); assay type: cell-based, human; conditions: HiBiT knock-in K562 cells, 24 hours, top dose 10 μM
Procedure, shortened: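 K562 HiBiT knock-in cells (10000/well) were treated 24 h at 37° C with a 10-point 3-fold dilution series (top 10 μM final, ≤0.25% DMSO). HiBiT luminescence was read after lytic LgBiT detection. Percent response used unmodified K562 and DMSO-treated knock-in controls, and IC50 came from a four-parameter fit at 50% of untreated.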

HTT = assay: HiBiT protein abundance assay, HTT (K562 HiBiT knock-in); assay type: cell-based, human; conditions: HiBiT knock-in K562 cells, 24 hours, top dose 10 μM
Procedure, shortened: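 Luminescence readout: Nano-Glo HiBiT lytic detection after 24 h compound exposure of K562 HiBiT knock-in cells, 10000 cells/well. Dosing 10-pt, 3-fold, top 10 μM final. % response vs untreated parental K562 and DMSO controls; 4PL fit, IC50 = concentration giving 50% protein abundance.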

K562 cells = assay: Cell Titer Glo 2.0 cell viability (toxicity) assay, K562; conditions: 500 cells/well, 72 hours
Target C [2] = assay: RT-qPCR canonical junction panel assay, Target C mRNA; assay type: cell-based; conditions: Table 4, read-out: Target C IC50 (decrease in CJ mRNA levels)
Procedure, shortened: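 IC50 is the concentration giving 50% CJ decrease, from a 4-parameter logistic fit of percent response; response derived from ΔΔCt against housekeeper and DMSO over a fixed ΔCt window, with canonical exon-junction qPCR in compound-treated K562 or A673 cells.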

IC50 (Target C [1]) [µM] | IC50 (HTT) [µM] | IC50 (Target C [2]) [µM] | Compound | Effect of Exemplary Compounds on Cell Viability, K562 (K562 cells)
1 to 10 | 1 to 10 | 1 to 10 | CN[C@H]1CCN(c2ccc3nc(-c4cc(C#N)c5nc(C)cn5c4)ncc3n2)C1 [Compound 406, 2-methyl-6-{6-[(3S)-3-(methylamino)pyrrolidin-1-yl]pyrido[3,2-d]pyrimidin-2-yl}imidazo[1,2-a]pyridine-8-carbonitrile] | B (B represents 100-1000 nM)
1 to 10 | 0.1 to 1 | 1 to 10 | CN[C@@H]1CCN(c2ccc3nc(-c4cc(C#N)c5nc(C)cn5c4)ncc3n2)C1 [Compound 407, 2-methyl-6-{6-[(3R)-3-(methylamino)pyrrolidin-1-yl]pyrido[3,2-d]pyrimidin-2-yl}imidazo[1,2-a]pyridine-8-carbonitrile] | B (B represents 100-1000 nM)
0.1 to 1 | 0.1 to 1 | 1 to 10 | Cc1nc2cc(O)c(-c3ccc4nc(N5CCNCC5)ccc4n3)cc2o1 [Compound 408, 2-methyl-6-[6-(piperazin-1-yl)-1,5-naphthyridin-2-yl]-1,3-benzoxazol-5-ol] | B (B represents 100-1000 nM)
0.1 to 1 | 0.1 to 1 | 1 to 10 | Cc1nc2cc(O)c(-c3ccc4nc(N5CCN[C@@H](C)C5)ccc4n3)cc2o1 [Compound 409] | B (B represents 100-1000 nM)
0.1 to 1 | 0.1 to 1 | 0.1 to 1 | Cc1nc2cc(O)c(-c3ccc4nc(N5CCN6CCCC6C5)ccc4n3)cc2o1 (stereo not shown) [Compound 410] | B (B represents 100-1000 nM)
1 to 10 | 1 to 10 | 1 to 10 | Cc1nc2cc(O)c(-c3ccc4nc(N5CCNC6(CC6)C5)ccc4n3)cc2o1 [Compound 411] | C (C represents 1000-9999 nM)
0.1 to 1 | 0.1 to 1 | 0.1 to 1 | Cc1nc2cc(O)c(-c3ccc4nc(N5CCC(NC(C)(C)C)CC5)ccc4n3)cc2o1 [Compound 412] | B (B represents 100-1000 nM)
< 0.1 | < 0.1 | < 0.1 | Cc1nc2cc(O)c(-c3ccc4nc(N5CC[C@@H](NC(C)(C)C)C5)ncc4n3)cc2o1 [Compound 413, 6-{2-[(3R)-3-(tert-butylamino)pyrrolidin-1-yl]pyrido[3,2-d]pyrimidin-6-yl}-2-methyl-1,3-benzoxazol-5-ol] | B (B represents 100-1000 nM)
0.1 to 1 | 0.1 to 1 | 1 to 10 | Cc1nc2cc(O)c(-c3ccc4nc(N5CC[C@H](NC(C)(C)C)C5)ncc4n3)cc2o1 [Compound 414, 6-{2-[(3S)-3-(tert-butylamino)pyrrolidin-1-yl]pyrido[3,2-d]pyrimidin-6-yl}-2-methyl-1,3-benzoxazol-5-ol] | B (B represents 100-1000 nM)
< 0.1 | < 0.1 | < 0.1 | Cc1nc2c(C)c(O)c(-c3ccc4nc(N5CC[C@H](NC(C)C)C5)ncc4n3)cc2o1 [Compound 416, 6-{2-[(3S)-3-(isopropylamino)pyrrolidin-1-yl]pyrido[3,2-d]pyrimidin-6-yl}-2,4-dimethyl-1,3-benzoxazol-5-ol] | A (A represents <100 nM)
1 to 10 | 0.1 to 1 | 1 to 10 | Cc1nc2cc(O)c(-c3ccc4cc(N5CC[C@@H](NC(C)(C)C)C5)ncc4n3)cc2o1 [Compound 417] | B (B represents 100-1000 nM)
0.1 to 1 | 0.1 to 1 | 0.1 to 1 | Cc1nc2cc(O)c(-c3ccc4nc(N5CCN[C@@H](C6CC6)C5)ccc4n3)cc2o1 [Compound 418] | B (B represents 100-1000 nM)
0.1 to 1 | 0.1 to 1 | 0.1 to 1 | Cc1nc2cc(O)c(-c3ccc4nc(N5C[C@@H](C)N[C@@H](C6CC6)C5)ccc4n3)cc2o1 [Compound 419] | B (B represents 100-1000 nM)
0.1 to 1 | 0.1 to 1 | 1 to 10 | Cc1nc2cc(O)c(-c3ccc4nc(N5C[C@@H](C)N[C@@H](C)C5)ccc4n3)cc2o1 [Compound 420] | B (B represents 100-1000 nM)
0.1 to 1 | 0.1 to 1 | 0.1 to 1 | Cc1nc2cc(O)c(-c3ccc4nc(N5CCN[C@H](C6CC6)C5)ccc4n3)cc2o1 [Compound 421] | B (B represents 100-1000 nM)
0.1 to 1 | 0.1 to 1 | 1 to 10 | Cc1nc2cc(O)c(-c3ccc4nc(N5CCN[C@@H](C(C)C)C5)ccc4n3)cc2o1 [Compound 422] | B (B represents 100-1000 nM)
0.1 to 1 | 1 to 10 | 1 to 10 | Cc1nc2cc(O)c(-c3ccc4nc(N5CCC(N)CC5)ccc4n3)cc2o1 [Compound 424] | B (B represents 100-1000 nM)
1 to 10 | 1 to 10 | > 10 | CNC1CCN(c2ccc3nc(-c4cc5oc(C)nc5cc4O)ccc3n2)CC1 [Compound 425] | B (B represents 100-1000 nM)
< 0.1 | < 0.1 | 0.1 to 1 | Cc1nc2c(C)c(O)c(-c3ccc4nc(N5CC[C@H](NC6CC6)C5)ncc4n3)cc2o1 [Compound 433, 6-{2-[(3S)-3-(cyclopropylamino)pyrrolidin-1-yl]pyrido[3,2-d]pyrimidin-6-yl}-2,4-dimethyl-1,3-benzoxazol-5-ol] | B (B represents 100-1000 nM)
0.1 to 1 | 0.1 to 1 | 0.1 to 1 | Cc1nc2cc(O)c(-c3ccc4nc(N5CC[C@H](NC6CC6)C5)ncc4n3)cc2o1 [Compound 435, 6-{2-[(3S)-3-(cyclopropylamino)pyrrolidin-1-yl]pyrido[3,2-d]pyrimidin-6-yl}-2-methyl-1,3-benzoxazol-5-ol] | B (B represents 100-1000 nM)
< 0.1 | < 0.1 | < 0.1 | Cc1nc2c(C)c(O)c(-c3ccc4nc(N5CC[C@@H](NC(C)(C)C)C5)ncc4n3)cc2o1 [Compound 436] | A (A represents <100 nM)
< 0.1 | < 0.1 | 0.1 to 1 | Cc1nc2c(C)c(O)c(-c3ccc4nc(N5CC[C@H](NC(C)(C)C)C5)ncc4n3)cc2o1 [Compound 437] | B (B represents 100-1000 nM)
< 0.1 | < 0.1 | 0.1 to 1 | Cc1c(O)c(-c2ccc3nc(N4CC[C@@H](NC5CC5)C4)ncc3n2)cc2cn(C)nc12 [Compound 438, 5-{2-[(3R)-3-(cyclopropylamino)pyrrolidin-1-yl]pyrido[3,2-d]pyrimidin-6-yl}-2,7-dimethylindazol-6-ol] | B (B represents 100-1000 nM)
< 0.1 | < 0.1 | 0.1 to 1 | Cc1c(O)c(-c2ccc3nc(N4CC[C@H](NC5CC5)C4)ncc3n2)cc2cn(C)nc12 [Compound 439, 5-{2-[(3S)-3-(cyclopropylamino)pyrrolidin-1-yl]pyrido[3,2-d]pyrimidin-6-yl}-2,7-dimethylindazol-6-ol] | B (B represents 100-1000 nM)
< 0.1 | < 0.1 | 0.1 to 1 | Cc1nc2c(C)c(O)c(-c3ccc4cc(N5CC[C@@H](NC6CC6)C5)ncc4n3)cc2o1 [Compound 440, 6-{6-[(3R)-3-(cyclopropylamino)pyrrolidin-1-yl]-1,7-naphthyridin-2-yl}-2,4-dimethyl-1,3-benzoxazol-5-ol] | B (B represents 100-1000 nM)
0.1 to 1 | 0.1 to 1 | 0.1 to 1 | Cc1nc2c(C)c(O)c(-c3ccc4cc(N5CC[C@H](NC6CC6)C5)ncc4n3)cc2o1 [Compound 441, 6-{6-[(3S)-3-(cyclopropylamino)pyrrolidin-1-yl]-1,7-naphthyridin-2-yl}-2,4-dimethyl-1,3-benzoxazol-5-ol] | B (B represents 100-1000 nM)
0.1 to 1 | 0.1 to 1 | 1 to 10 | Cn1cc2cc(-c3ccc4cc(N5CCC(NC(C)(C)C)C5)ncc4n3)c(O)cc2n1 (stereo not shown) [Compound 449, 5-{6-[3-(tert-butylamino)pyrrolidin-1-yl]-1,7-naphthyridin-2-yl}-2-methylindazol-6-ol] | B (B represents 100-1000 nM)

Compound | IC50 (Target C [1]) [µM] | IC50 (HTT) [µM] | IC50 (Target C [2]) [µM] | Effect of Exemplary Compounds on Cell Viability, K562 (K562 cells)
Cn1cc2cc(-c3ccc4nc(C5CCNC6(CC6)C5)ncc4n3)c(O)cc2n1 (stereo not shown) [Compound 448, 5-(2-{4-azaspiro[2.5]octan-7-yl}pyrido[3,2-d]pyrimidin-6-yl)-2-methylindazol-6-ol] | 0.1 to 1 | 0.1 to 1 | 1 to 10 | C (C represents 1000-9999 nM)
